pIC50: −log10 of the molar value. Where “and” joins values, the source holds several entries; their conditions need not be identical. Equal values may be shown once. Read-outs that look alike come from different tables or passages of the source. Marks after values point to notes of the source that are not given here.
Key:
EphrinB2-EphB1 = target: T1, EphrinB2-EphB1 (Homo sapiens, UniProt P54762); test: Octet 80 sec association/500 sec dissociation, immobilized human EphrinB2-Fc binding to soluble human EphB1-His; conditions: for inhibition at 3.2 µM / % Inhibition: Association + Dissociation (160 sec): EphB1, 25 nM EphB1, 3.2 μM compound, A20-I as max control, 0* = less than 0, no inhibition; for EphB1 Inhibition Percent, Inhibition of Association ONLY: at 3.2 μM and 80 seconds; for EphB1 Inhibition Percent, Inhibition of Association ONLY / EphB1 Inhibition Percent, Inhibition of Association-Dissociation: immobilized human EphrinB2, 25 nM soluble human EphB1; for EphB1 Inhibition Percent, Inhibition of Association-Dissociation: at 3.2 μM and 580 seconds
T1 construct: soluble human EphB1-His, EphB2-His, and EphB4-His ectodomains; commercially available human EphrinB1-Fc (EB1), EphrinB2-Fc (EB2), and EphrinB3-Fc (EB3) ectodomain proteins; purchased
T1 sequence (P54762 18-540 limits assumed): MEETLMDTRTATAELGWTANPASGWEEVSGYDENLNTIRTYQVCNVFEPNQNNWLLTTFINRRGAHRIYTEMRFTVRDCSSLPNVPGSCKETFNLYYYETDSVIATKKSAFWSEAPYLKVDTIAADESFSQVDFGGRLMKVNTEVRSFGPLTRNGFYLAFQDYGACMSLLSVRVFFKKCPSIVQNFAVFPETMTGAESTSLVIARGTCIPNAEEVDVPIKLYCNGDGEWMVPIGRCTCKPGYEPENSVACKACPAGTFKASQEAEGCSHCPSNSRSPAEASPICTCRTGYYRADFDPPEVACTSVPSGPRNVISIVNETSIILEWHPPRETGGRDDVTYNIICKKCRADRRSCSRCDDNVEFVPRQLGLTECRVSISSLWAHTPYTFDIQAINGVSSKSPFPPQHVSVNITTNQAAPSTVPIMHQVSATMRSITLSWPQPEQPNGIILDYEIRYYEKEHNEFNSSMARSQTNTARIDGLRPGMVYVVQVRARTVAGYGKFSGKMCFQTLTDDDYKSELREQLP
Procedure, shortened: (§1)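 EphrinB2-Fc captured on AHC biosensors, then soluble His-tagged EphB ectodomain (25 nM for % inhibition runs) associated 80 s and dissociated 500 s in PBS, 0.05% Tween-20, 1% DMSO ± compound. Compounds tested at 0.1–3.2 μM with a 10 μM max standard; IC50 from AUC of full traces or at 75 s and 135 s.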

EphrinB2-EphB2 [1] = target: T2, EphrinB2-EphB2 (Homo sapiens, UniProt P29323); test: Octet 80 sec association/500 sec dissociation, immobilized human EphrinB2-Fc binding to soluble human EphB2-His; conditions: for EphB2 Inhibition Percent, Inhibition of Association ONLY: at 3.2 μM and 80 seconds; for EphB2 Inhibition Percent, Inhibition of Association ONLY / EphB2 Inhibition Percent, Inhibition of Association-Dissociation: immobilized human EphrinB2, 25 nM soluble human EphB2; for EphB2 Inhibition Percent, Inhibition of Association-Dissociation: at 3.2 μM and 580 seconds
T2 construct: soluble human EphB1-His, EphB2-His, and EphB4-His ectodomains; commercially available human EphrinB1-Fc (EB1), EphrinB2-Fc (EB2), and EphrinB3-Fc (EB3) ectodomain proteins; purchased
T2 sequence (P29323 19-543 limits assumed): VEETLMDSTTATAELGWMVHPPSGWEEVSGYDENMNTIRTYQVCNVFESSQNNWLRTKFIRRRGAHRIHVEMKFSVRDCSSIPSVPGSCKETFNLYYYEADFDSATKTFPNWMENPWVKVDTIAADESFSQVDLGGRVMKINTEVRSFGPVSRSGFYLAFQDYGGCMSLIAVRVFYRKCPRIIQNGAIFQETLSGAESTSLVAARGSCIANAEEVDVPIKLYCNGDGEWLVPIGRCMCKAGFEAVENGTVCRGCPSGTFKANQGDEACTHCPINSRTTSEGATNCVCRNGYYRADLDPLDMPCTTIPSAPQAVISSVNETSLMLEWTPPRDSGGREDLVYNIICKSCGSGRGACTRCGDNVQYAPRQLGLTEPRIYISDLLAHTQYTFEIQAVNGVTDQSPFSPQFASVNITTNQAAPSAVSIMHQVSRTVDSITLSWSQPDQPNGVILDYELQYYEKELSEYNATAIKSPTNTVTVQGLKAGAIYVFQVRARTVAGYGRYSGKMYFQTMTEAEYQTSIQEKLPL
Procedure, shortened: as §1

EphrinB2-EphB2 [2] = target: T2, EphrinB2-EphB2; test: Octet tetramerization inhibition, immobilized human EphrinB2 binding to 50 nM soluble human EphB2
[3] = read-out: % Inhibition: Association + Dissociation (160 sec)
[4] = read-out: % Inhibition: Association ONLY (80 sec)
[5] = EphB2, 25 nM EphB2, 3.2 μM compound, A20-I as max control, 0* = less than 0, no inhibition, read-out: % Inhibition: Association + Dissociation (160 sec)
[6] = EphB2, 25 nM EphB2, 3.2 μM compound, A20-I as max control, 0* = less than 0, no inhibition, read-out: % Inhibition: Association ONLY (80 sec)
[7] = Absolute AUC/IC50, Table A, EphrinB2-EphB2
[8] = Absolute Dissociation IC50 (450 sec), Table A, EphrinB2-EphB2
[9] = Relative AUC/IC50, Table A, EphrinB2-EphB2, compound 7: association only
[10] = Relative Association IC50 (300 sec), Table A, EphrinB2-EphB2
[11] = Relative Dissociation IC50 (450 sec), Table A, EphrinB2-EphB2
[12] = Absolute Association IC50 (300 sec), Table A, EphrinB2-EphB2
[13] = tetramerization inhibitor IC50 (relative), association step, surmountable tetramer
[14] = EphB2, 25 nM EphB2, 3.2 μM compound, A20-I as max control, 0* = less than 0, no inhibition, listed as A19-NO2 (B)

SMILES	inhibition at 3.2 µM (EphrinB2-EphB1; [3]) [%]	inhibition at 3.2 µM (EphrinB2-EphB1; [4]) [%]	inhibition at 3.2 µM (EphrinB2-EphB2 [1]; [5]) [%]	inhibition at 3.2 µM (EphrinB2-EphB2 [1]; [6]) [%]	pIC50 (EphrinB2-EphB2 [2]; [7])	pIC50 (EphrinB2-EphB2 [2]; [8])	pIC50 (EphrinB2-EphB2 [2]; [9])	pIC50 (EphrinB2-EphB2 [2]; [10])	pIC50 (EphrinB2-EphB2 [2]; [11])	pIC50 (EphrinB2-EphB2 [2]; [12])	pIC50 (EphrinB2-EphB2 [2]; [13])	EphB1 Inhibition Percent, Inhibition of Association ONLY (EphrinB2-EphB1)	EphB1 Inhibition Percent, Inhibition of Association-Dissociation (EphrinB2-EphB1)	EphB2 Inhibition Percent, Inhibition of Association ONLY (EphrinB2-EphB2 [1])	EphB2 Inhibition Percent, Inhibition of Association-Dissociation (EphrinB2-EphB2 [1])	further results
Oc1ccc(CN2CCN(Cc3ccc(Br)cc3)CC2)c2cccnc12 [Compound 42, 5-((4-(4-bromobenzyl)piperazin-1-yl)methyl)quinolin-8-ol]	36.5	19.9	56.3	37.8	5.60	5.72	6.03	5.99	5.98							
COc1ccccc1N1CCN(Cc2cc(Br)c(O)c3ncccc23)CC1 [Compound 70, 7-bromo-5-((4-(2-methoxyphenyl)piperazin-1-yl)methyl)quinolin-8-ol]	58.8	47.2	73	53.4	< 5.80	6.44	6.77	6.74	6.72	5.92	~6.70					
O=[N+]([O-])c1cc(CN2CCS(=O)(=O)CC2)c2cccnc2c1O [Compound 20, 4-((8-hydroxy-7-nitroquinolin-5-yl)methyl)thiomorpholine 1,1-dioxide]	36	24	51.7	36.7	< 5.49	< 5.49		5.67	5.68	< 5.49	< 5.52					inhibition of EphB1-EphrinB2 binding (EphrinB2-EphB1; association step, general): 25%; inhibition of EphB2-EphrinB2 binding (EphrinB2-EphB2 [1]; association step, general): 40%
COc1ccc2[nH]cc(C(=O)N3CCN(c4ccccc4OC)CC3)c2c1 [Compound 64, (5-methoxy-1H-indol-3-yl)(4-(2-methoxyphenyl)piperazin-1-yl)methanone]	0	0	0	0	< 5.80	< 5.80	< 5.80	< 5.80	< 5.80	< 5.80						
Oc1ccc(CN2CCN(c3ccc(Br)cc3)CC2)c2cccnc12 [Compound 26, 5-((4-(4-bromophenyl)piperazin-1-yl)methyl)quinolin-8-ol]	30.6										5.92	11.2%	36.6%	35.9%	60.1%	% Inhibition: Association + Dissociation (160 sec) (EphrinB2-EphB1; listed as QPB4): 35.0%
O=[N+]([O-])c1cc(CN2CCOCC2)c2cccnc2c1O [Compound 10, 4-((8-hydroxy-7-nitroquinolin-1-ium-5-yl)methyl)morpholin-4-ium chloride]					< 5.80	< 5.80	< 5.80	< 5.80	< 5.80	< 5.80			23.1% and 14.2% and 20.2%	9.2% and 11.6% and 16.5%	24.5% and 24.2% and 21.0%	% Inhibition: Association + Dissociation (160 sec) (EphrinB2-EphB1; listed as A19-NO2 (B)): 14.2%; % Inhibition: Association + Dissociation (160 sec) (EphrinB2-EphB2 [1]; [14]): 24.2%; % Inhibition: Association ONLY (80 sec) (EphrinB2-EphB2 [1]; [14]): 11.6%
Oc1c(Br)cc(CN2CCOCC2)c2cccnc12 [Compound 6, 4-((7-bromo-8-hydroxyquinolin-1-ium-5-yl)methyl)morpholin-4-ium chloride]						6.16	6.32	6.31	6.28	6.03		33.5%	48.7%	61.0%	76.8%	
Oc1ccc(CN2CCN(c3ccc(F)cc3F)CC2)c2cccnc12 [Compound 62, 5-((4-(2,4-difluorophenyl)piperazin-1-yl)methyl)quinolin-8-ol]					< 5.80	< 5.80	< 5.80	< 5.80	< 5.80	< 5.80		17.9%	14.7%	0*%	0*%	
OCc1ccc2c(CN3CCOCC3)cc(Br)c(O)c2n1 [Compound 13, 7-bromo-2-(hydroxymethyl)-5-(morpholinomethyl)quinolin-8-ol]	29.1	12.4	68.4	50.5	< 5.49	5.60	5.84	5.85	5.81	< 5.49	~5.80					
Oc1c(I)cc(CN2CCOCC2)c2cccnc12 [Compound 8, 4-((8-hydroxy-7-iodoquinolin-1-ium-5-yl)methyl)morpholin-4-ium chloride]					5.88 and 6.00 and 5.83	6.01 and 5.90 and 6.07	6.20	6.20 and 6.07	6.18 and 6.03	5.86 and 5.87 and < 5.49			53.2%		73.6%	
Oc1c(Br)cc(CN2CCOCC2)c2cccnc12 [Compound 5, 7-bromo-5-(morpholinomethyl)quinolin-8-ol]	45.2	25.1	75.7	55.4							~6.30					pIC50 (EphrinB2-EphB2 [2]; absolute IC50, association, dissociation and AUC, A20 salt): ~6.00 and 6.00; pIC50 (EphrinB2-EphB2 [2]; effective/relative IC50, A20 salt): > 6.00; association slope (EphrinB2-EphB2 [2]; in presence of A20, role: inhibitor, 20° without): 10 °; IC (maximum) (EphrinB2-EphB2 [2]; read-out: concentration producing maximum inhibition): 1 µM; inhibition at 1 µM (EphrinB2-EphB2 [2]; read-out: reduction of association response): ~50%
Oc1c(Br)cc(CN2CCN(c3ccc(Br)cc3)CC2)c2cccnc12 [Compound 30, 7-bromo-5-((4-(4-bromophenyl)piperazin-1-ium-1-yl)methyl)-8-hydroxyquinolin-1-ium chloride]					6.59		6.54 and 6.59		6.47	6.22		24.7% and 39.1%	38.6% and 53.1%	57.7% and 62.5%	72.9% and 78.7%	
Oc1ccc(CN2CCN(Cc3ccccc3)CC2)c2cccnc12 [Compound 41, 5-((4-benzylpiperazin-1-yl)methyl)quinolin-8-ol]	27.7	18.7	25.3	9.1	5.68 and < 5.49	5.52	5.67	5.74	5.65 and 5.70	5.55 and 5.52						

Reference: US20260374739A1, “SMALL MOLECULAR WEIGHT CHEMICAL COMPOUND TO ANTAGONIZE EPH-EPHRIN TETRAMERIZATION AND INHIBIT BIDIRECTIONAL SIGNALING” (THE BOARD OF REGENTS OF THE UNIVERSITY OF TEXAS SYSTEM, priority 2022, published 2026)
